One assay relates to RAW 264.7 cells. The experiment in a line: Phagocytosis assay (Fluorescein-labeled Escherichia coli, flow cytometry). The following applies: 10 micrograms per ml, Fluorescein-labeled E. coli, 60 min.
In assay [1] the test system is Primary Human endothelial cells (HUVEC). The experiment in a line: Endothelial cell migration assay. Type of assay: cell-based. The following applies: 10 micrograms per ml, 22 hours. How it is done:
Thereafter, designated concentration of testing peptides—10 micrograms per ml—was added in duplicate wells.

The subject of assay [2] is hepatitis B virus (HBV) ayw strain. The experiment in a line: HBV assay, secreted HBV DNA by TaqMan PCR in HepG2-2.2.15 cells. Type of assay: cell-based. Conditions: 10 micrograms per ml, six days.
Protocol: HepG2-2.2.15 is a stable cell line containing the hepatitis B virus (HBV) ayw strain genome (ATCC Cat. No. CRL-11997). […] After 16-24 hours the confluent monolayer of HepG2-2.2.15 cells was washed and the medium was replaced with complete medium containing test peptides-10 micrograms per ml—in duplicate. […] Three days later the culture medium was replaced with fresh medium containing the peptides. Six days following the initial administration of the peptides, the cell culture supernatants was collected, treated with pronase and DNAse and then used in a real-time quantitative TaqMan PCR assay. The PCR-amplified HBV DNA was detected in real-time by monitoring increases in fluorescence signals that result from the exonucleolytic degradation of a quenched fluorescence probe molecule that hybridizes to the mplified HBV DNA. For each PCR amplification, a standard curve was simultaneously generated using dilutions of purified HBV DNA. Antiviral activity was calculated from the reduction in HBV DNA levels (% virus control). A novel dye uptake assay was then employed to measure cell viability, which is used to calculate toxicity (% cell control).
For assay [3], the system named is spleen cells of Ovalbumin-immunized Balb/c mice. The experiment in a line: Th1/Th2 cytokine profiling assay (Mouse Th1/Th2 Cytokine CBA Kit). The assay is classed as cell-based. The following applies: 10 micrograms per ml; Ovalbumin restimulation, 72 hours.
Description: The Balb/c mice (originated in 1923, it is a popular strain and is used in many different research disciplines. Also classified as an inbred from the production of 20 or more successive brother-sister matings, the Balb/c mouse is albino and small in size) were immunized on Days 1, 15, and 29 with Ovalbumin (Ovalbumin is the main protein found in egg white, commonly used to stimulate an immunological reaction in test animals) in PBS (5 micrograms/injection). On day 50, spleens of the mice were harvested (3 weeks after last boost with Ovalbumin). Cells were cultured (2×10^5/well in triplicate) and incubated with culture medium or test peptides—10 micrograms per ml—for 30 min. Thereafter, additional Ovalbumin was added to the cells at 10 micrograms/ml for in vitro restimulation of the cells. 72 hours later, cell supernatants were harvested and assayed using the Becton Dickinson Mouse Th1/Th2 Cytokine CBA Kit.
Another assay deals with HCMV strain AD169. The experiment in a line: HCMV plaque formation assay in MRC-5 cells. Conditions: for inhibition of HCMV plaque formation as compared to the virus control experiment: 10 micrograms per ml, 7-10 days.
For the next assay, the system named is HUVEC. The experiment in a line: Endothelial tube formation assay. Type of assay: cell-based, human. Conditions: 10 micrograms per ml, 20 hours. From the text:
Positive control was vehicle only. […] Raw data were expressed as average tubule lenghs in pixels±standard deviation.

Ends that are not written are not given here.

Description for HCMV strain AD169: Cells were split twic a week 1:2.
Ganciclovir was used as positive control.

For the molecule `CC(C)(C)NC(=O)[C@@H]1CN(Cc2cccnc2)CCN1C[C@@H](O)C[C@@H](Cc1ccccc1)C(=O)N[C@H]1c2ccccc2C[C@H]1O` [indinavir], the “antiviral activity of positive control compounds (HIV-1)” value with HIV-1IIIB was “expected levels of antiviral activity”.
Turning to “Thr-Gln-Ala-Gln-Leu-Leu-Arg-Val-Gly-Cys-Val-Leu-Gly-Thr-Cys-Gln-Val-Gln-Asn-Leu-Ser-His-Arg-Leu-Trp-Gln-Leu-Met-Gly-Pro-Ala-Gly-Arg-Gln-Asp-Ser-Ala-Pro-Val-Asp-Pro-Ser-Ser-Pro-His-Ser-Tyr-NH2 [peptide 2]”, in the assay on RAW 264.7 cells, the “induction of phagocytosis as compared to the control experiment” value is given as 34.3%. Moreover, the “induction of the migration of human endothelial cells” value in assay [1] turned out to be 19%. Further, the “inhibition of HBV replication as compared to the virus control infection” value in assay [2] is listed as “no effect”. In assay [3], the “IFNγ spleen cells; TH1 response (% of control)” value is given as 19.1 % of control, the “IL-2 spleen cells (% of control)” value is 98.9 % of control, the “IL-4 spleen cells; TH2 response (% of control)” value is 0.0 % of control and the “IL-5 spleen cells; TH2 response (% of control)” value is on record as 17.9 % of control. Moreover, the “TNF-a spleen cells; TH1 response (% of control)” value in assay [3] is listed as 66.7 % of control. The “inhibition of HCMV plaque formation as compared to the virus control experiment” value with HCMV strain AD169 was 0.7%. In addition, the “inhibition of the tube formation of human endothelial cells” value in the assay with HUVEC is recorded as 12%.
On to “His-Ser-Gly-Pro-Arg-Arg-Thr-Gln-Ala-Gln-Leu-Leu-Arg-Val-Gly-Cys-Val-Leu-Gly-Thr-Cys-Gln-Val-Gln-Asn-Leu-Ser-His-Arg-Leu-Trp-Gln-Leu-Met-Gly-Pro-Ala-Gly-Arg-Gln-Asp-Ser-Ala-Pro-Val-Asp-Pro-Ser-Ser-Pro-His-Ser-Tyr-NH2 (HSGPRRTQAQLLRVGCVLGTCQVQNLSHRLWQLMGPAGRQDSAPVDPSSPHSY-NH2; cysteine pairing not given here) [peptide 1]”, for which the “induction of phagocytosis as compared to the control experiment” value in the assay on RAW 264.7 cells is “did not induce phagocytosis”. Further, the “inhibition of the migration of endothelial cells” value in assay [1] is 8%. Besides, in assay [3], the “IFNγ spleen cells; TH1 response (% of control)” value was 21.7 % of control, the “IL-2 spleen cells (% of control)” value is recorded as 75.6 % of control, the “IL-4 spleen cells; TH2 response (% of control)” value was 166.9 % of control and the “IL-5 spleen cells; TH2 response (% of control)” value is recorded as 34.5 % of control. The “TNF-a spleen cells; TH1 response (% of control)” value in assay [3] is listed as 70.0 % of control. Besides, the “inhibition of HCMV plaque formation as compared to the virus control experiment” value in the assay on HCMV strain AD169 is on record as 1.8%. In the assay with HUVEC, the “inhibition of the tube formation of human endothelial cells” value is reported as 19%.
For `Cc1cn([C@H]2C[C@H](N=[N+]=[N-])[C@@H](CO)O2)c(=O)[nH]c1=O` [AZT], the “antiviral activity of positive control compounds (HIV-1)” value with HIV-1IIIB is given as “expected levels of antiviral activity”.
With `Nc1nc(O)c2ncn(COC(CO)CO)c2n1` [Ganciclovir, reference compound], the “antiviral activity of positive control compound (HCMV)” value with HCMV strain AD169 (positive control, HCMV AD169) is “expected levels of antiviral activity”.

The values are drawn from patent US20100210538A1, “THERAPEUTIC USES OF INTERMEDIN 47 AND 53 PEPTIDES” (priority 2007, published 2010).
